In patent US20170190671A1, “BIS(ARYL)CATECHOL DERIVATIVES AS HERBICIDES” (E I DU PONT DE NEMOURS AND COMPANY, priority 2014, published 2017):

Columns and labels:
[1] = test system: Italian ryegrass (Lolium multiflorum); test: Test C postemergence; format: in vivo; conditions: Lolium multiflorum, post-emergence, 336 h, Postemergence, scale 0 to 100, read-out: Plant response rating, Ryegrass, Italian
Summary of the method: (§1)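 After preemergence treatment of seeds in loam-sand soil or foliar treatment at the 1- to 4-leaf stage of plants in peat/vermiculite medium, pots were kept 13-15 days in the greenhouse. Each was then scored visually, 0 meaning no effect and 100 complete control.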

[2] = test system: barnyardgrass (Echinochloa crus-galli); test: Test C postemergence; format: in vivo; conditions: Echinochloa crus-galli, post-emergence, Postemergence, scale 0 to 100, read-out: Plant response rating, Barnyardgrass
Summary of the method: as §1

[3] = test system: corn (Zea mays); test: Test C postemergence; format: in vivo; conditions: Zea mays, post-emergence, 336 h, Postemergence, scale 0 to 100
Summary of the method: as §1

[4] = test system: galium (catchweed bedstraw, Galium aparine); test: Test C postemergence; format: in vivo; conditions: Galium, post-emergence, 336 h, Postemergence, scale 0 to 100, read-out: Plant response rating, Galium
Summary of the method: as §1

[5] = test system: johnsongrass (Sorghum halepense); test: Test C postemergence; format: in vivo; conditions: Sorghum halepense, post-emergence, 336 h, Postemergence, scale 0 to 100, read-out: Plant response rating, Johnsongrass
Summary of the method: as §1

[6] = test system: kochia (Kochia scoparia); test: Test C postemergence; format: in vivo; conditions: Bassia scoparia, post-emergence, Postemergence, scale 0 to 100, read-out: Plant response rating, Kochia
Summary of the method: as §1

[7] = test system: large (Lg) crabgrass (Digitaria sanguinalis); test: Test C postemergence; format: in vivo; conditions: Digitaria sanguinalis, post-emergence, 336 h, Postemergence, scale 0 to 100, read-out: Plant response rating, Crabgrass, Large
Summary of the method: as §1

[8] = test system: morningglory (Ipomoea coccinea); test: Test C postemergence; format: in vivo; conditions: Ipomoea, post-emergence, 336 h, Postemergence, scale 0 to 100, read-out: Plant response rating, Morningglory
Summary of the method: as §1

[9] = test system: oilseed rape (Brassica napus); test: Test C postemergence; format: in vivo; conditions: Brassica napus, post-emergence, Postemergence, scale 0 to 100, read-out: Plant response rating, Oilseed Rape
Summary of the method: as §1

[10] = test system: pigweed (Amaranthus retroflexus); test: Test C postemergence; format: in vivo; conditions: Amaranthus retroflexus, post-emergence, 336 h, Postemergence, scale 0 to 100, read-out: Plant response rating, Pigweed
Summary of the method: as §1

[11] = test system: ragweed (common ragweed, Ambrosia elatior); test: Test C postemergence; format: in vivo; conditions: Ambrosia artemisiifolia, post-emergence, 336 h, Postemergence, scale 0 to 100, read-out: Plant response rating, Ragweed
Summary of the method: as §1

[12] = test system: soybean (Glycine max); test: Test C postemergence; format: in vivo; conditions: Glycine max, post-emergence, Postemergence, scale 0 to 100, read-out: Plant response rating, Soybean
Summary of the method: as §1

[13] = test system: waterhemp (common waterhemp, Amaranthus rudis); test: Test C postemergence; format: in vivo; conditions: Amaranthus tuberculatus, post-emergence, Postemergence, scale 0 to 100, read-out: Plant response rating, Waterhemp
Summary of the method: as §1

[14] = test system: wild oat (Avena fatua); test: Test C postemergence; format: in vivo; conditions: Avena fatua, post-emergence, Postemergence, scale 0 to 100, read-out: Plant response rating, Oat, Wild
Summary of the method: as §1

[15] = test system: winter wheat (Triticum aestivum); test: Test C postemergence; format: in vivo; conditions: Triticum aestivum, post-emergence, 336 h, Postemergence, scale 0 to 100, read-out: Plant response rating, Wheat
Summary of the method: as §1

Fc1cnc(Oc2c(Br)cccc2Oc2ncc(Cl)cn2)nc1 [Compound 22]
113 to 116 °C: melting point
20%: pest or weed control at 250 g/ha ([7]; 250 g ai/ha)
45%: pest or weed control at 31 g/ha ([6]; 31 g ai/ha)
25%: pest or weed control at 125 g/ha ([7]; 125 g ai/ha)
0%: pest or weed control at 31 g/ha ([1]; 31 g ai/ha) | pest or weed control at 62 g/ha ([1]; 62 g ai/ha) | pest or weed control at 31 g/ha ([5]; 31 g ai/ha) | pest or weed control at 62 g/ha ([5]; 62 g ai/ha) | plant injury at 250 g/ha ([12]; 250 g ai/ha) | pest or weed control at 31 g/ha ([14]; 31 g ai/ha) | plant injury at 31 g/ha ([15]; 31 g ai/ha) | plant injury at 62 g/ha ([15]; 62 g ai/ha) | plant injury at 125 g/ha ([15]; 125 g ai/ha) | plant injury at 250 g/ha ([15]; 250 g ai/ha)
15%: pest or weed control at 125 g/ha ([2]; 125 g ai/ha) | pest or weed control at 62 g/ha ([7]; 62 g ai/ha) | pest or weed control at 250 g/ha ([14]; 250 g ai/ha)
10%: pest or weed control at 250 g/ha ([2]; 250 g ai/ha) | Corn plant response rating (crop injury, 0 = no effect, 100 = complete kill) at 62 g/ha ([3]; 62 g ai/ha) | Corn plant response rating (crop injury, 0 = no effect, 100 = complete kill) at 125 g/ha ([3]; 125 g ai/ha) | Corn plant response rating (crop injury, 0 = no effect, 100 = complete kill) at 250 g/ha ([3]; 250 g ai/ha) | pest or weed control at 125 g/ha ([14]; 125 g ai/ha)
100%: pest or weed control at 250 g/ha ([10]; 250 g ai/ha)
85%: pest or weed control at 125 g/ha ([6]; 125 g ai/ha) | pest or weed control at 125 g/ha ([8]; 125 g ai/ha) | pest or weed control at 62 g/ha ([10]; 62 g ai/ha) | pest or weed control at 62 g/ha ([13]; 62 g ai/ha)
70%: pest or weed control at 31 g/ha ([4]; 31 g ai/ha) | pest or weed control at 62 g/ha ([8]; 62 g ai/ha) | pest or weed control at 31 g/ha ([13]; 31 g ai/ha)
80%: pest or weed control at 31 g/ha ([8]; 31 g ai/ha) | pest or weed control at 250 g/ha ([8]; 250 g ai/ha)
60%: pest or weed control at 62 g/ha ([6]; 62 g ai/ha) | plant injury at 125 g/ha ([9]; 125 g ai/ha)
30%: pest or weed control at 31 g/ha ([11]; 31 g ai/ha)
40%: plant injury at 31 g/ha ([9]; 31 g ai/ha) | plant injury at 62 g/ha ([9]; 62 g ai/ha) | plant injury at 31 g/ha ([12]; 31 g ai/ha)
5%: pest or weed control at 125 g/ha ([1]; 125 g ai/ha) | pest or weed control at 250 g/ha ([1]; 250 g ai/ha) | pest or weed control at 31 g/ha ([2]; 31 g ai/ha) | pest or weed control at 62 g/ha ([2]; 62 g ai/ha) | Corn plant response rating (crop injury, 0 = no effect, 100 = complete kill) at 31 g/ha ([3]; 31 g ai/ha) | pest or weed control at 125 g/ha ([5]; 125 g ai/ha) | pest or weed control at 250 g/ha ([5]; 250 g ai/ha) | pest or weed control at 31 g/ha ([7]; 31 g ai/ha) | pest or weed control at 62 g/ha ([14]; 62 g ai/ha)
90%: pest or weed control at 62 g/ha ([4]; 62 g ai/ha) | pest or weed control at 125 g/ha ([4]; 125 g ai/ha) | pest or weed control at 250 g/ha ([6]; 250 g ai/ha) | pest or weed control at 125 g/ha ([10]; 125 g ai/ha) | pest or weed control at 125 g/ha ([11]; 125 g ai/ha) | pest or weed control at 250 g/ha ([11]; 250 g ai/ha) | plant injury at 125 g/ha ([12]; 125 g ai/ha)
35%: plant injury at 250 g/ha ([9]; 250 g ai/ha) | pest or weed control at 62 g/ha ([11]; 62 g ai/ha)
75%: pest or weed control at 31 g/ha ([10]; 31 g ai/ha) | plant injury at 62 g/ha ([12]; 62 g ai/ha)
95%: pest or weed control at 250 g/ha ([4]; 250 g ai/ha) | pest or weed control at 125 g/ha ([13]; 125 g ai/ha) | pest or weed control at 250 g/ha ([13]; 250 g ai/ha)
